The experiment has as its system ICR mice. Nature of the experiment: Pentobarbital-induced sleep test (sleep latency and total sleeping time). In kind it is in vivo. The settings on record: Example 2-1; positive control, 1 mg/kg oral, 30 min before pentobarbital 45 mg/kg i.p. How it is done: The sleep improvement effects of the Perilla frutescens fermented extract and conventionally sold sedatives were intended to be confirmed from comparison of sleep latency and total sleeping time.
Specifically, 0.9% physiological saline, 10 mg/kg of the Perilla frutescens extract (Perilla-W) or fermented extract thereof (Perilla-B) prepared in [Example 1], and 1 mg/kg of diazepam (Myung In Pharm. Co., Ltd.) were each orally administered to ICR mice (OrientBio). 30 minutes after the administration of the test materials, 45 mg/kg of a nerve stabilizer pentobarbital (HANLIM PHARM. Co., Ltd.) was intraperitoneally administered to induce sleep. After the administration of pentobarbital, the time required to go into deep sleep (sleep latency) and the total sleep maintenance time (total sleeping time) were measured for each test material administration group. Physiological saline and diazepam were used as a control and a positive control, respectively.
Specifically, sleep latency and total sleeping time ere measured in the same manner as in Example <2-1> using 0.9% physiological saline and 10 mg/kg of the Perilla frutescens extract (Perilla-W) or fermented extract thereof (Perilla-B, Perilla-L, and Perilla-S) prepared in [Example 1].

`CN1C(=O)CN=C(c2ccccc2)c2cc(Cl)ccc21` [diazepam] had a sleep latency of 220 s.
